# Laboratory results published in patent US11524021B2, “Use of ginsenoside M1 for manufacturing medicament for treating oral cancer” (priority 2018, dated 2022).
# Columns and labels:
# Type in all cases: cell-based
# [1] = tested on: human oral cancer cells OECM-1; test: Cell cycle distribution, PI staining by flow cytometry; details: 50 μM, 24 h
# Procedure: (§1) Human oral cancer cell line OECM-1 cells were incubated for 24 h with ginsenoside M1 (10˜20 μg/ml), 50 μM cistaplatin (CDDP) or vehicle (0.1% DMSO). (FIG. 3A) The apoptotic DNA breaks was assayed by terminal deoxynucleotidyl transferase dUTP nick end labeling (TUNEL) assay using flow cytometry. (FIG. 3B) The cell cycle distribution was determined by PI staining using flow cytometry. (FIG. 3C) The apoptosis level was measured by PI/Annexin V double staining assay using flow cytometry. (FIG. 3D) The activation levels of caspase-9 and caspase-3 were measured by detecting the degradation of pro-caspase-9 and pro-caspase-3 using Western blotting. […] (One-way ANOVA with Dunnett's multiple comparisons test).
# (§2) To gain further insight into the mode of action of ginsenoside M1, three assays targeting hallmarks of apoptosis, namely (1) the apoptotic DNA breaks assayed by terminal deoxynucleotidyl transferase dUTP nick end labeling (TUNEL) assay, (2) the cell cycle assayed by flow cytometry after propidium iodide (PI)-staining nuclei, (3) the PI/Annexin V double staining assay, and (4) caspase activation were performed. Plate 1×10^6 human oral cancer cells OECM-1 per 6-cm dish in 2 ml of culture medium and were grown overnight at 37° C. in a 5% CO2 incubator. The cells were incubated for 24 h with ginsenoside M1 (10˜20 μg/ml), 50 μM cistaplatin (CDDP) or vehicle. Each group contains a final DMSO concentration of 0.1%. Thereafter, three assays were performed. […] The cells in sub-G1 phase increased after treatment with ginsenoside M1 and CDDP. (FIG. 3B). […] The data were expressed as mean±SD; n=3. ** and *** indicate a significant difference at the level of p<0.01 and p<0.001, respectively, compared to vehicle-control cells. (One-way ANOVA with Dunnett's multiple comparisons test).
# [2] = tested on: human oral cancer cells OECM-1; test: PI/Annexin V double staining assay by flow cytometry; details: 50 μM, 24 h
# Procedure: as §1, §2
# [3] = tested on: human oral cancer cells OECM-1; test: Apoptotic DNA breaks, TUNEL assay by flow cytometry; details: 50 μM, 24 h
# Procedure: as §1, §2
# [4] = tested on: human oral cancer OECM-1 cells; test: Viability of human oral cancer OECM-1 cells, Trypan blue exclusion; details: 5˜20 μg/ml, 24 h
# Procedure: (§3) Human oral cancer cell line SAS cells (FIG. 1A) or OECM-1 cells (FIG. 1B) were incubated for 24 h with ginsenoside M1 (5˜20 μg/ml), ginsenoside Rh2 (5˜20 μg/ml) or vehicle (0.1% DMSO). The live cell numbers were counted by Trypan blue exclusion method. The data were expressed as mean±SD; n=3. *, ** and *** indicate a significant difference at the level of p<0.05, p<0.01 and p<0.001, respectively, compared to vehicle-control cells. (One-way ANOVA with Dunnett's multiple comparisons test).
# (§4) Plate 5×10^5 human oral cancer cells SAS per 6-cm dish in 2 ml of culture medium and were grown overnight at 37° C. in a 5% CO2 incubator. The cells were incubated for 24 h with ginsenoside M1 (5˜20 μg/ml), ginsenoside Rh2 (5˜20 μg/ml) or vehicle. Each group contains a final DMSO concentration of 0.1%. Thereafter, the cell numbers were counted by Trypan blue exclusion method. […] The data were expressed as mean±SD; n=3. *, ** and *** indicate a significant difference at the level of p<0.05, p<0.01 and p<0.001, respectively, compared to vehicle-control cells. (One-way ANOVA with Dunnett's multiple comparisons test).
# [5] = tested on: human oral cancer cells SAS; test: Viability of human oral cancer SAS cells, Trypan blue exclusion; details: 5˜20 μg/ml, 24 h
# Procedure: as §3, §4
# [6] = tested on: normal human gingival epithelioid cell line SG; test: Toxicity to normal human gingival epithelioid SG cells, Trypan blue exclusion; details: 20 μg/ml, 24 h
# Procedure: Human normal human gingival epithelioid cell line SG cells were incubated for 24 h with ginsenoside M1 (5˜20 μg/ml), ginsenoside Rh2 (5˜20 μg/ml) or vehicle (0.1% DMSO). The live cell numbers were counted by Trypan blue exclusion method. The data were expressed as mean±SD; n=3. ** and *** indicate a significant difference at the level of p<0.01 and p<0.001, respectively, compared to vehicle-control cells. (One-way ANOVA with Dunnett's multiple comparisons test).
# as §4, with “5×10^5 normal” for “5×10^5”, “gingival epithelioid cell line SG” for “oral cancer cells SAS”, “n=3.” for “n=3. *,”, “of” for “of p<0.05,”
Compound,cells in sub-G1 phase [1],cells in G1 phase ([1]; vs control cells),percentage of cells in S and G2/M phase ([1]; vs control cells),percentage of OECM-1 cells with PI/Annexin V double positive staining [2],apoptotic DNA breaks in OECM-1 cells [3],cell numbers of human oral cancer OECM-1 cells [4],cell numbers of human oral cancer SAS cells [5],toxicity to SG cells [6]
"N.N.[Cl][Pt][Cl] [CDDP, cistaplatin, reference compound]",increased,increased,decreasing,significantly increased,significantly induced,–,–,–
"CC(C)=CCC[C@](C)(O)[C@H]1CC[C@]2(C)[C@@H]1[C@H](O)C[C@@H]1[C@@]3(C)CC[C@H](O[C@@H]4O[C@H](CO)[C@@H](O)[C@H](O)[C@H]4O)C(C)(C)[C@@H]3CC[C@]12C [ginsenoside Rh2, reference compound]",–,–,–,–,–,dose-dependently inhibited,dose-dependently inhibited,completely killed the SG cells
